# Measured values published in patent US20230233541A1, “SUBSTITUTED BENZAMIDES AS MODULATORS OF TREX1” (Constellation Pharmaceuticals, Inc., priority 2020, published 2023).
# How the values were obtained:
# full length human TREX1 = molecular target: T1, full length human TREX1 (Homo sapiens, UniProt Q9NSU2); experiment: TREX1 Biochemical Assay (fluorescence assay, degradation of dsDNA substrate); conditions: 150 pM TREX1, 60 nM dsDNA substrate, 25 minutes at room temperature; read-out: hTREX1 EC50
# T1 construct: N-terminally His-Tev tagged full length human TREX1; His-Tev (His tag with TEV protease site) (N); made in house; host or cells: E. coli
# T1 sequence (Q9NSU2 1-314): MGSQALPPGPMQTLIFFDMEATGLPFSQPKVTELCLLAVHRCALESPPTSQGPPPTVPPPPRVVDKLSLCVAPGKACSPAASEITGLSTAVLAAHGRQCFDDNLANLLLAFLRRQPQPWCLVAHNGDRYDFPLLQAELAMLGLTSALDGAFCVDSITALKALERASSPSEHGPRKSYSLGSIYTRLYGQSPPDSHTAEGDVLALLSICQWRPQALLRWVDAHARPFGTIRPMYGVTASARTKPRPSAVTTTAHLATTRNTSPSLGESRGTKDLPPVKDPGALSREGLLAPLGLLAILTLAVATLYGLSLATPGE
# Protocol: Degradation of the dsDNA liberates free fluorophore to produce a fluorescent signal. Specifically, 7.5 μL of N-terminally His-Tev tagged full length human TREX1 (expressed in E. coli and purified in house) in reaction buffer (50 mM Tris (pH 7.4), 150 mM NaCl, 2 mM DTT, 0.1 mg/mL BSA, 0.01% (v/v) Tween-20 and 100 mM MgCl2) was added to a 384-well Black ProxiPlate Plus (Perkin Elmer) which already contained compound (150 nL) at varying concentrations as a 10-point dose-response in DMSO. To this was added 7.5 μL of dsDNA substrate (Strand A: 5′ TEX615/GCT AGG CAG 3′; Strand B: 5′ CTG CCT AGC/IAbRQSp (Integrated DNA Technologies)) in reaction buffer. Final concentrations were 150 pM TREX1, 60 nM dsDNA substrate in reaction buffer with 1.0% DMSO (v/v). After 25 minutes at room temperature, reactions were quenched by the addition of 5 μL of stop buffer (same as reaction buffer plus 200 mM EDTA). Final concentrations in the quenched reaction were 112.5 pM TREX1, 45 nM DNA and 50 mM EDTA in a volume of 20 μL. After a 5-minute incubation at room temperature, plates were read in a laser sourced Envision (Perkin-Elmer), measuring fluorescence at 615 nm following excitation w/570 nm light. IC50 values were calculated by comparing the measured fluorescence at 615 nm ratio relative to control wells pre-quenched w/stop buffer (100% inhibition) and no inhibitor (0% inhibition) controls as using non-linear least square four parameter fits and either Genedata or GraphPad Prism (GraphPad Software, Inc.).
# [1] = molecular target: T2, human TREX2 (residues M44-A279) (Homo sapiens, UniProt Q9BQ50); experiment: TREX2 Biochemical Assay (fluorescence assay, degradation of dsDNA substrate); conditions: 2.5 nM TREX2, 60 nM dsDNA substrate, 25 minutes at room temperature; read-out: hTREX2 EC50
# T2 construct: human TREX2 (residues M44-A279, expressed in E. coli); His-Tev (His tag with TEV protease site) (N); made in house; host or cells: E. coli
# T2 sequence (Q9BQ50 44-279 isoform Q9BQ50-1): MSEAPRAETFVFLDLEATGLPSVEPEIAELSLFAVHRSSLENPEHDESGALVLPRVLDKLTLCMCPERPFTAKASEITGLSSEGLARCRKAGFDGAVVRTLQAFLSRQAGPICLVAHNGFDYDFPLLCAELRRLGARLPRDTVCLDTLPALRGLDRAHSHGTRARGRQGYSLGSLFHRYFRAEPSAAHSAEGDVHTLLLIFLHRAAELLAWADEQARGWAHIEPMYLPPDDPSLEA
# Protocol: Degradation of the dsDNA liberates free fluorophore to produce a fluorescent signal. Specifically, 7.5 μL of N-terminally His-Tev tagged human TREX2 (residues M44-A279, expressed in E. coli and purified in house) in reaction buffer (50 mM Tris (pH 7.4), 150 mM NaCl, 2 mM DTT, 0.1 mg/mL BSA, 0.01% (v/v) Tween-20 and 100 mM MgCl2) was added to a 384-well Black ProxiPlate Plus (Perkin Elmer) which already contained compound (150 nL) at varying concentrations as a 10-point dose-response in DMSO. To this was added 7.5 μL of dsDNA substrate (Strand A: 5′ TEX615/GCT AGG CAG 3′; Strand B: 5′ CTG CCT AGC/IAbRQSp (IDT)) in reaction buffer. Final concentrations were 2.5 nM TREX2, 60 nM dsDNA substrate in reaction buffer with 1.0% DMSO (v/v). After 25 minutes at room temperature, reactions were quenched by the addition of 5 μL of stop buffer (same as reaction buffer plus 200 mM EDTA). Final concentrations in the quenched reaction mixture were […] TREX2, 45 nM DNA and 50 mM EDTA in a volume of 20 μL. After a 5-minute incubation at room temperature, plates were read in a laser sourced Envision (Perkin-Elmer), measuring fluorescence at 615 nm following excitation w/570 nm light. IC50 values were calculated by comparing the measured fluorescence at 615 nm ratio relative to control wells pre-quenched w/stop buffer (100% inhibition) and no inhibitor (0% inhibition) controls as using non-linear least square four parameter fits and either Genedata or GraphPad Prism (GraphPad Software, Inc.).
EC50 (full length human TREX1) [µM],EC50 [1] [µM],Structure (SMILES)
> 10,> 100,O=C(c1ccccc1F)N(Cc1cccnc1)Cc1cc(Cl)cc(Cl)c1 [Compound 37]
> 10,> 100,O=C(c1ccc(F)c(Br)c1)N(Cc1cccnc1)Cc1cc(Cl)cc(Cl)c1 [Compound 38]
> 10,> 100,O=C(c1ccc(Oc2ccc(F)cc2)cc1)N(Cc1cccnc1)Cc1ccc(Cl)cc1Cl [Compound 39]
> 10,> 100,O=C(c1cc(Br)c(O)c(Br)c1)N(Cc1cccnc1)Cc1ccc(Cl)cc1Cl [Compound 40]
> 10,> 100,COc1cc(C(=O)N(Cc2cccnc2)Cc2ccc(Cl)cc2Cl)cc(Br)c1O [Compound 41]
> 10,> 100,O=C(c1ccccc1N1CCCCC1)N(Cc1cccnc1)Cc1ccc(Cl)cc1Cl [Compound 42]
> 10,> 100,O=C(c1cccc(-c2ccccc2)c1)N(Cc1cccnc1)Cc1ccc(Cl)cc1Cl [Compound 43]
> 10,> 100,O=C(c1ccccc1Oc1ccccc1)N(Cc1cccnc1)Cc1ccc(Cl)cc1Cl [Compound 44]
> 10,> 100,O=C(c1ccc(Cl)cc1O)N(Cc1cccnc1)Cc1cc(Cl)cc(Cl)c1 [Compound 45]
> 10,> 100,O=C(c1ccccc1N1CCCCC1)N(Cc1cccnc1)Cc1cc(Cl)cc(Cl)c1 [Compound 46]
> 10,> 100,COc1cc(C(=O)N(Cc2cccnc2)Cc2cc(Cl)cc(Cl)c2)cc(Br)c1OC [Compound 47]
> 10,> 100,O=C(c1ccc(O)cc1)N(Cc1cccnc1)Cc1cc(Cl)cc(Cl)c1 [Compound 48]
> 10,> 100,O=C(c1cc(Cl)c(O)c(Cl)c1)N(Cc1cccnc1)Cc1cc(Cl)cc(Cl)c1 [Compound 49]
> 10,> 100,COc1cc(C(=O)N(Cc2cccnc2)Cc2cc(Cl)cc(Cl)c2)ccc1F [Compound 50]
> 10,> 100,CC(C)c1ccc(C(=O)N(Cc2cccnc2)Cc2cc(Cl)cc(Cl)c2)cc1 [Compound 51]
> 10,> 100,COc1cc(Br)cc(C(=O)N(Cc2cccnc2)Cc2cc(Cl)cc(Cl)c2)c1 [Compound 52]
> 10,10 to 100,O=C(c1cc(Br)c(O)c(Br)c1)N(Cc1cccnc1)Cc1cc(Cl)cc(Cl)c1 [Compound 53]
> 10,> 100,CC(C)Oc1ccc(C(=O)N(Cc2cccnc2)Cc2cc(Cl)cc(Cl)c2)cc1 [Compound 54]
> 10,> 100,O=C(c1ccccc1Oc1ccccc1)N(Cc1cccnc1)Cc1cc(Cl)cc(Cl)c1 [Compound 55]
> 10,> 100,O=C(c1cccc(-c2ccccc2)c1)N(Cc1cccnc1)Cc1cc(Cl)cc(Cl)c1 [Compound 56]
> 10,> 100,O=C(c1ccc(O)c(F)c1)N(Cc1cccnc1)Cc1cc(Cl)cc(Cl)c1 [Compound 57]
> 10,> 100,O=C(c1ccc(-c2ccccc2)cc1)N(Cc1cccnc1)Cc1cc(Cl)cc(Cl)c1 [Compound 58]
> 10,> 100,O=C(c1ccc(Oc2ccc(Cl)cc2)cc1)N(Cc1cccnc1)Cc1cc(Cl)cc(Cl)c1 [Compound 59]

EC50 (full length human TREX1) [µM],EC50 [1] [µM],Structure (SMILES)
> 10,> 100,O=C(c1ccc(CO)cc1F)N(Cc1cccnc1)Cc1cc(Cl)cc(Cl)c1 [Compound 60]
> 10,> 100,CC(C)(C)c1ccc(C(=O)N(Cc2cccnc2)Cc2cc(Cl)cc(Cl)c2)cc1 [Compound 61]
> 10,> 100,COc1cc(C(=O)N(Cc2cccnc2)Cc2cc(Cl)cc(Cl)c2)cc(Br)c1O [Compound 62]
> 10,> 100,O=C(c1ccc(Cl)cc1Br)N(Cc1cccnc1)Cc1cc(Cl)cc(Cl)c1 [Compound 63]
> 10,> 100,O=C(c1ccc(CO)cc1)N(Cc1cccnc1)Cc1cc(Cl)cc(Cl)c1 [Compound 64]
1 to 10,> 100,O=C(c1ccc(F)c(Cl)c1)N(Cc1cccnc1)Cc1cc(Cl)cc(Cl)c1 [Compound 65]
> 10,> 100,O=C(c1cccc(Oc2ccccc2)c1)N(Cc1cccnc1)Cc1cc(Cl)cc(Cl)c1 [Compound 66]
> 10,> 100,COc1cc(C(=O)N(Cc2cccnc2)Cc2cc(Cl)cc(Cl)c2)cc(Cl)c1O [Compound 67]
> 10,> 100,Cc1cc(C(=O)N(Cc2cccnc2)Cc2cc(Cl)cc(Cl)c2)cc(C)c1O [Compound 69]
> 10,> 100,O=C(c1ccc(Br)cc1Cl)N(Cc1cccnc1)Cc1cc(Cl)cc(Cl)c1 [Compound 70]
> 10,> 100,O=C(c1ccc(Oc2ccccc2)cc1)N(Cc1cccnc1)Cc1cc(Cl)cc(Cl)c1 [Compound 71]
> 10,> 100,O=C(c1ccc(O)c(C(F)(F)F)c1)N(Cc1cccnc1)Cc1cc(Cl)cc(Cl)c1 [Compound 72]
> 10,> 100,O=C(c1ccc(O)c(Br)c1)N(Cc1cccnc1)Cc1cc(Cl)cc(Cl)c1 [Compound 73]
> 10,> 100,O=C(c1ccc(Oc2ccc(F)cc2)cc1)N(Cc1cccnc1)Cc1cc(Cl)cc(Cl)c1 [Compound 74]
> 10,> 100,O=C(c1ccc(Cl)c(Cl)c1)N(Cc1cccnc1)Cc1cc(Cl)cc(Cl)c1 [Compound 75]
> 10,> 100,Cc1ccc(C(=O)N(Cc2cccnc2)Cc2cc(Cl)cc(Cl)c2)c(Br)c1 [Compound 76]
> 10,> 100,O=C(c1ccc(Oc2ccc(Br)cc2)cc1)N(Cc1cccnc1)Cc1cc(Cl)cc(Cl)c1 [Compound 77]
> 10,> 100,Cc1cc(C(=O)N(Cc2cccnc2)Cc2cc(Cl)cc(Cl)c2)ccc1Br [Compound 78]
> 10,> 100,O=C(/C=C/c1ccco1)N(Cc1cccnc1)Cc1ccc(Cl)cc1Cl [Compound 79]
> 10,> 100,COc1cc(C(=O)N(Cc2cccnc2)Cc2ccc(Cl)cc2Cl)ccc1F [Compound 80]
> 10,> 100,O=C(C1CC1)N(Cc1cccnc1)Cc1ccc(Cl)cc1Cl [Compound 81]
> 10,> 100,CC(C)(C)c1ccc(C(=O)N(Cc2cccnc2)Cc2ccc(Cl)cc2Cl)cc1 [Compound 82]
